Read-outs that look alike come from different tables or passages of the source.

These results are taken from patent US8039496B2, “Therapeutic compounds” (Allergan, Inc., priority 2007, dated 2011).

For data set [1], the target named is T1, hEP2 (Homo sapiens, UniProt P43116). Nature of the data set: hEP2 binding (Ki). The conditions noted are these: the 3rd table; read-out: EP2 data Ki. From the text: (§1) U.S. patent application Ser. No. 11/553,143, filed on Oct. 26, 2006, describes the methods used to obtain the in vitro data in the table below.
In data set [2] the target is T2, hEP4 (Homo sapiens, UniProt P35408). The data set can be described thus: hEP4 binding (Ki). As to conditions: the 3rd table; read-out: EP4 data KI.
Source text: as §1

The target of a further data set is T3, hDP (Homo sapiens, UniProt Q13258).
T3 sequence (Q13258 1-359): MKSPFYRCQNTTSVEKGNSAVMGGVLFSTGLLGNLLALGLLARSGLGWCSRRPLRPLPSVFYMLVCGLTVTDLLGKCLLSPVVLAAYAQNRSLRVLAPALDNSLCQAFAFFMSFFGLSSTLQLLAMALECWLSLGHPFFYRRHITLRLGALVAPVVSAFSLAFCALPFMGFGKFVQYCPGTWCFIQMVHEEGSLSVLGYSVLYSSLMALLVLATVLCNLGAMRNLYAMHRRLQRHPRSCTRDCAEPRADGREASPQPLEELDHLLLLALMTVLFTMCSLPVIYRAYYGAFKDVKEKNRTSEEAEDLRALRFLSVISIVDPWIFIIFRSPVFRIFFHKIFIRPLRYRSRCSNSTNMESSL
Nature of the data set: Other receptors: hDP. As to conditions: the 3rd table; read-out: Other Receptors (ED50 in nM) hDP. It is filed as cell-based.
Source text: as §1

Data set [3] concerns the target T2, hEP4. The data set can be described thus: hEP4 flipr functional assay. The class given is cell-based. The conditions noted are these: the 3rd table; read-out: EP4 data flipr EC50.
Source text: as §1

For data set [4], the target named is T1, hEP2. The data set can be described thus: hEP2 cAMP functional assay. The class given is cell-based. As to conditions: the 3rd table; read-out: EP2 data cAMP EC50.
Source text: as §1

A further data set addresses T4, hEP3 (Homo sapiens, UniProt P43115).
T4 sequence (P43115 1-390): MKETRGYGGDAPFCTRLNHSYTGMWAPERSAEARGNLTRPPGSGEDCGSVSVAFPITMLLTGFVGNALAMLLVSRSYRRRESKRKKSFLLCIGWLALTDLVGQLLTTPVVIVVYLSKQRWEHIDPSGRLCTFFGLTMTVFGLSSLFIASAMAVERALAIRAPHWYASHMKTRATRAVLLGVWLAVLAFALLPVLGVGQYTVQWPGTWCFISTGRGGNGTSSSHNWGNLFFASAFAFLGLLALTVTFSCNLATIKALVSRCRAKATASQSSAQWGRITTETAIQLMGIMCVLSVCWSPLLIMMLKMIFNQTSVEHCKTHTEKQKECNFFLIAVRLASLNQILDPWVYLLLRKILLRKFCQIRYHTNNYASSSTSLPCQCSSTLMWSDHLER
The data set can be described thus: Other receptors: hEP3 / hEP3A. It is filed as cell-based.
Source text: as §1

Data set [5] concerns the target T1, hEP2. The data set can be described thus: hEP2 flipr functional assay. It is filed as cell-based. The conditions noted are these: the 3rd table; read-out: EP2 data flipr EC50.
Source text: as §1

For data set [6], the system named is normotensive dogs. The data set can be described thus: Ocular surface hyperemia in normotensive dogs. The conditions noted are these: once daily for 5 days. It is filed as in vivo. Also noted: scale not given here. How it is done:
(§2) U.S. Pat. No. 7,091,231 describes the methods used for these in vivo tests. 5-{3-[1R,2S,3R,5R)-5-Chloro-2-(3,5-dichloro-phenoxymethyl)-3-hydroxy-cyclopentyl]-propyl}-thiophene-2-carboxylic acid was tested at multiple concentrations in normotensive dogs, dosing once daily for 5 days. At 0.1%, the maximum intraocular pressure (IOP) decrease from baseline was 7.5 mmHg (48%) at 30 h; the maximum ocular surface hyperemia (OSH) score was 2.75 at 26 h. At 0.01%, the maximum IOP decrease from baseline was 7.5 mmHg (43%) at 76 h; the maximum OSH score was 2.0 at 26 h. At 0.005%, the maximum IOP decrease from baseline was 6.6 mmHg (35%) at 78 h; the maximum OSH score was 1.75 at 74 h. This compound was also tested in laser-induced hypertensive monkeys, using one single day dose. At 0.01%, the maximum IOP decrease from baseline was 20.2 mmHg (53%) at 24 h.

In data set [7] the test system is normotensive dogs. Nature of the data set: Intraocular pressure in normotensive dogs. The class given is in vivo. As to conditions: Canis lupus familiaris, topical, 120 h, once daily for 5 days, read-out: maximum IOP decrease from baseline (percent). How it is done:
as §2

Data set [8] concerns laser-induced hypertensive monkeys. The data set can be described thus: Intraocular pressure in laser-induced hypertensive monkeys. As to conditions: one single day dose. The class given is in vivo. How it is done: as §2
Where [9] appears, read: the 3rd table, read-out: Other Receptors (ED50 in nM) hEP3A.

T2 sequence (P35408 whole entry): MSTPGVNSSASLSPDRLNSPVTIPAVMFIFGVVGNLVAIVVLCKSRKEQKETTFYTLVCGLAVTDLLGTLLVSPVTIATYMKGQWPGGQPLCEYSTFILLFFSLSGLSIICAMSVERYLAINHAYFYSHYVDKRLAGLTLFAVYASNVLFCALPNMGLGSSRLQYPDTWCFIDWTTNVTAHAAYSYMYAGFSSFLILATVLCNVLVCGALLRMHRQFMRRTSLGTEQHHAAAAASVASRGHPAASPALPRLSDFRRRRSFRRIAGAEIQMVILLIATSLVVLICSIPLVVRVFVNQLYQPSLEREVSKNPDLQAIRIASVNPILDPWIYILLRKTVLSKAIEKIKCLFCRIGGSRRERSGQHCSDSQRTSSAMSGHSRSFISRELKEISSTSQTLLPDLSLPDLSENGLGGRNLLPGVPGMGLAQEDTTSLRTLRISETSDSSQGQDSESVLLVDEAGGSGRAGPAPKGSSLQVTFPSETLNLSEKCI
T1 sequence (P43116 whole entry): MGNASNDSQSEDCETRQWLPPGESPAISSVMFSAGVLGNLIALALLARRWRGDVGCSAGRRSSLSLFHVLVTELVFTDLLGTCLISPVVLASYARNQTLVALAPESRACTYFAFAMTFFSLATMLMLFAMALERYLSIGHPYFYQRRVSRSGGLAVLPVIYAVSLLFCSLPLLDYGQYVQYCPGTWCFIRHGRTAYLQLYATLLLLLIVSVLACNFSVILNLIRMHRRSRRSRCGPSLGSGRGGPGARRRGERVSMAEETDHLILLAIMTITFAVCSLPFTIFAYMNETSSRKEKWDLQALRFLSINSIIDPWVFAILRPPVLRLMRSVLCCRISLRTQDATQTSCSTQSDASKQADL

Broadly, the Ki is the dissociation constant of the complex between target and ligand, obtained from inhibition or displacement. With `O=C(O)c1ccc(CCC[C@@H]2[C@@H](COc3cc(F)cc(F)c3)[C@H](O)C[C@H]2Cl)s1` [5-(3-((1R,2S,3R,5R)-5-chloro-2-((3,5-difluorophenoxy)methyl)-3-hydroxycyclopentyl)propyl)thiophene-2-carboxylic acid], the Ki is 3 nM at hEP2 [1] and 1280 nM on hEP4 [2]. Also, the EC50 at hDP was 12100 nM; on hEP4 [3], 5.29 µM; on hEP2 [4], 0.3 nM; at hEP3 (setting [9]) it was 4140 nM; at hEP2 [5], 216 nM.
Take `O=C(O)c1ccc(CCC[C@@H]2[C@@H](COc3cc(F)cc(C(F)(F)F)c3)[C@H](O)C[C@H]2Cl)s1` [5-(3-((1R,2S,3R,5R)-5-chloro-2-((3-fluoro-5-(trifluoromethyl)phenoxy)methyl)-3-hydroxycyclopentyl)propyl)thiophene-2-carboxylic acid]: the Ki at hEP2 [1] stood at 2.4 nM; at hEP4 [2], 354 nM. For the same compound, the EC50 is 12.3 µM on hEP4 [3], 0.2 nM on hEP2 [4], 6820 nM on hEP3 (setting [9]) and 1150 nM at hEP2 [5].
Turning to `Cc1cc(OC[C@@H]2[C@@H](CCCc3ccc(C(=O)O)s3)[C@H](Cl)C[C@H]2O)cc(C)c1Cl` [5-(3-((1R,2S,3R,5R)-5-chloro-2-((4-chloro-3,5-dimethylphenoxy)methyl)-3-hydroxycyclopentyl)propyl)thiophene-2-carboxylic acid], the results for the Ki on hEP2 [1] and on hEP4 [2] were 0.7 nM and 170 nM, respectively. Also, the EC50 at hDP is 7190 nM; on hEP4 [3], greater than 10 µM; on hEP2 [4] it was 0.2 nM; at hEP2 [5], 1490 nM.
As for `O=C(O)c1ccc(CCC[C@@H]2[C@@H](COc3ccc(Cl)c4ccccc34)[C@H](O)C[C@H]2Cl)s1` [5-(3-((1R,2S,3R,5R)-5-chloro-2-((4-chloronaphthalen-1-yloxy)methyl)-3-hydroxycyclopentyl)propyl)thiophene-2-carboxylic acid], the Ki on hEP2 [1] is 10 nM; on hEP4 [2], 1930 nM. The EC50 on hDP worked out at 13500 nM; on hEP4 [3], 15 µM; on hEP2 [4] it was 2.5 nM; on hEP2 [5], 3530 nM.
Regarding `O=C(O)c1ccc(CCC[C@@H]2[C@@H](COc3cccc4c3CCCC4)[C@H](O)C[C@H]2Cl)s1` [5-(3-((1R,2S,3R,5R)-5-chloro-3-hydroxy-2-((5,6,7,8-tetrahydronaphthalen-1-yloxy)methyl)cyclopentyl)propyl)thiophene-2-carboxylic acid], the Ki came out at 37 nM on hEP2 [1] and 1460 nM at hEP4 [2]. Besides, the EC50 at hDP turned out to be 8620 nM; on hEP4 [3] it was 9.83 µM; on hEP2 [4], 2.5 nM; on hEP3 (setting [9]) it was 5790 nM; at hEP2 [5] it was 175 nM.
Take `O=C(O)c1ccc(CCC[C@@H]2[C@@H](COc3cccc4ccccc34)[C@H](O)C[C@H]2Cl)s1` [5-(3-((1R,2S,3R,5R)-5-chloro-3-hydroxy-2-((naphthalen-1-yloxy)methyl)cyclopentyl)propyl)thiophene-2-carboxylic acid]: the Ki is 5.5 nM on hEP2 [1] and 114 nM on hEP4 [2]. The EC50 at hDP is 4150 nM; at hEP4 [3] it was greater than 10 µM; on hEP2 [4], 0.7 nM; at hEP3 (setting [9]), 4030 nM; at hEP2 [5] it was 949 nM.
In the case of `O=C(O)c1ccc(CCC[C@@H]2[C@@H](COc3ccccc3)[C@H](O)C[C@H]2Cl)s1` [5-(3-((1R,2S,3R,5R)-5-chloro-3-hydroxy-2-(phenoxymethyl)cyclopentyl)propyl)thiophene-2-carboxylic acid], the Ki at hEP2 [1] came out at 29 nM; on hEP4 [2] it was 2320 nM. The EC50 was found to be 9090 nM on hDP; 8.42 µM on hEP4 [3]; 3.4 nM on hEP2 [4]; 9650 nM on hEP3 (setting [9]); 235 nM on hEP2 [5].
For `O=C(O)CCC/C=C\C[C@@H]1[C@@H](COc2cc(Cl)cc(CO)c2)[C@H](O)C[C@H]1Cl` [(Z)-7-[(1R,2S,3R,5R)-5-Chloro-2-(3-chloro-5-hydroxymethyl-phenoxymethyl)-3-hydroxy-cyclopentyl]-hept-5-enoic acid], the “maximum ocular surface hyperemia (OSH) score” value in the data set on normotensive dogs [6] (0.1%) is recorded as 0.9. The inhibition in vivo at 0.1 % in the data set with normotensive dogs [7] worked out at 13.5%. For the same compound, in [8] (0.1%), the “maximum IOP decrease from baseline” value was 8 mmHg and the “maximum IOP decrease from baseline (percent)” value is 21%.
Regarding `O=C(O)c1ccc(CCC[C@@H]2[C@@H](COc3cc(Cl)cc(Cl)c3)[C@H](O)C[C@H]2Cl)s1` [Example 4, 5-{3-[(1R,2S,3R,5R)-5-Chloro-2-(3,5-dichloro-phenoxymethyl)-3-hydroxy-cyclopentyl]-propyl}-thiophene-2-carboxylic acid], the “maximum ocular surface hyperemia (OSH) score” value with normotensive dogs [6] (0.005%) is given as 1.75; in the data set with normotensive dogs [6] (0.01%), 2.0; in the data set on normotensive dogs [6] (0.1%) it was 2.75. The inhibition in vivo at 0.005 % in the data set on normotensive dogs [7] (0.005%) came out at 35%. For the same compound, in the data set on normotensive dogs [7] (0.01%), the inhibition in vivo at 0.01 % was 43%. Besides, the inhibition in vivo at 0.1 % in the data set with normotensive dogs [7] amounted to 48%. Besides, in data set [8] (0.01%), the “maximum IOP decrease from baseline” value is given as 20.2 mmHg. Besides, in data set [8] (0.01%), the “maximum IOP decrease from baseline (percent)” value is on record as 53%.
Consider `CC(C)OC(=O)CCC/C=C\C[C@@H]1[C@@H](COc2cc(Cl)cc(CO)c2)[C@H](O)C[C@H]1Cl` [Example 12, (Z)-Isopropyl 7-((1R,2S,3R,5R)-5-chloro-2-((3-chloro-5-(hydroxymethyl)phenoxy)methyl)-3-hydroxycyclopentyl)hept-5-enoate], for which the “maximum ocular surface hyperemia (OSH) score” value with normotensive dogs [6] (0.1%) is 0.8. Further, in the data set on normotensive dogs [7], the inhibition in vivo at 0.1 % is 33%. Moreover, in data set [8] (0.1%), the “maximum IOP decrease from baseline” value turned out to be 7.4 mmHg and the “maximum IOP decrease from baseline (percent)” value is listed as 21%.
In the same order, the values of `CC(=O)OCc1cc(Cl)cc(OC[C@@H]2[C@@H](C/C=C\CCCC(=O)OC(C)C)[C@H](Cl)C[C@H]2O)c1` [Example 13, (Z)-Isopropyl 7-((1R,2S,3R,5R)-2-((3-(acetoxymethyl)-5-chlorophenoxy)methyl)-5-chloro-3-hydroxycyclopentyl)hept-5-enoate] are 0.7, 20%, 8.2 mmHg and 21%.
With `O=C(O)CCC/C=C\C[C@@H]1[C@@H](COc2cc(Cl)cc(Cl)c2)[C@H](O)C[C@H]1Cl` [drawing 43, (Z)-7-[(1R,2S,3R,5R)-5-Chloro-2-(3,5-dichloro-phenoxymethyl)-3-hydroxy-cyclopentyl]-hept-5-enoic acid], at hEP3 (the 2nd table, read-out: Other Receptors hEP3), the EC50 stood at 1260 nM.
